Test results as given in article PMC4287973, “Tumor cell-specific inhibition of MYC function using small molecule inhibitors of the HUWE1 ubiquitin ligase” (EMBO Molecular Medicine, 2014).
Where two headings read alike, the source gives them in different places.

Experiments:
NEDD4 = molecular target: T1, NEDD4 (Homo sapiens, UniProt P46934); experiment: in vitro HECT-domain auto-ubiquitination assay, NEDD4; format: biochemical
T1 construct: HECT-domains of multiple ligases auto-ubiquitinate in in vitro assays containing both UBA1 and UbcH5b
T1 sequence (P46934 984-1318 limits assumed, species assumed): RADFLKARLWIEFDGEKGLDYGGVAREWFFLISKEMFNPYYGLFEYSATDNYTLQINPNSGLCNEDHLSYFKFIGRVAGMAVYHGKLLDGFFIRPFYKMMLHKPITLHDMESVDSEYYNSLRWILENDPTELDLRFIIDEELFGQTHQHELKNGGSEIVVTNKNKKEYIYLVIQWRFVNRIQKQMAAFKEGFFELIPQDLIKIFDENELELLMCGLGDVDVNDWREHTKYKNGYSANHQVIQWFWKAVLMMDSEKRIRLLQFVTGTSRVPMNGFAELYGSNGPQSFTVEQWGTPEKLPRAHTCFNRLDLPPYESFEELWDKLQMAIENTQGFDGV
Method: Briefly, the HECT-domain of HUWE1 was biotin-tagged, attached to streptavidin-coated 96-well plates, and incubated with UBA1, UbcH5b, a ubiquitin-conjugating enzyme that supports HUWE1 activity in vitro (Adhikary et al, [2005]), ATP, and MYC-tagged ubiquitin. Auto-ubiquitination was detected using a europium-labeled MYC antibody and appropriate detection reagents (Fig3A). […] These assays were used to analyze the specificity of the identified inhibitors.

NEDD4L = molecular target: T2, NEDD4L (Homo sapiens, UniProt Q96PU5); experiment: in vitro HECT-domain auto-ubiquitination assay, NEDD4L; format: biochemical
T2 construct: HECT-domains of multiple ligases auto-ubiquitinate in in vitro assays containing both UBA1 and UbcH5b
T2 sequence (Q96PU5 640-974 limits assumed): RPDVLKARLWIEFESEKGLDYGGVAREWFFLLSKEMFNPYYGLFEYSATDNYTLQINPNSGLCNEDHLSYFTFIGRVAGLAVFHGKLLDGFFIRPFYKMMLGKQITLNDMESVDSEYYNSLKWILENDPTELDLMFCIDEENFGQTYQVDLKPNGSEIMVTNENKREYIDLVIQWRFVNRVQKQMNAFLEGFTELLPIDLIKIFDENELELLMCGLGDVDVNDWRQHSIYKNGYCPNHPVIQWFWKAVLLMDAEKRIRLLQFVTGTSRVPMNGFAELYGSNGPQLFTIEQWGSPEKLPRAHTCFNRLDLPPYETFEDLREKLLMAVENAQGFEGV

ITCH = molecular target: T3, ITCH (Homo sapiens, UniProt Q96J02); experiment: in vitro HECT-domain auto-ubiquitination assay, ITCH; format: biochemical
T3 construct: HECT-domains of multiple ligases auto-ubiquitinate in in vitro assays containing both UBA1 and UbcH5b
T3 sequence (Q96J02 569-903 limits assumed, species assumed): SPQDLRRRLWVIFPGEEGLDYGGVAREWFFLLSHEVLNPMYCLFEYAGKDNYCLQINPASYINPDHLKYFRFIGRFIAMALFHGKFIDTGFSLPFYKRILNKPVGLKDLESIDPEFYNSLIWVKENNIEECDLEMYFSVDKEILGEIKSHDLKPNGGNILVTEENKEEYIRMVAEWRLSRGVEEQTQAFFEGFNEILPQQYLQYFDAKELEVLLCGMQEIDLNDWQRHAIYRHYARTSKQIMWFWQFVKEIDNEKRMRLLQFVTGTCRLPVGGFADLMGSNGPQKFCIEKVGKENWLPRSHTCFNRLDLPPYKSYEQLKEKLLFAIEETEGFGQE

Ls174T cells = experiment: Crystal violet growth assay of control and partially HUWE1-depleted Ls174T cells (IC50 shift); format: cell-based; details: Homo sapiens, 120 h, crystal violet after five days
Method: Partial shRNA-mediated depletion of HUWE1 led to a moderate, but highly significant reduction in IC50 value for growth inhibition by BI8622, arguing that growth inhibition is an on-target effect of the inhibitor (Supplementary Fig S6). […] Incubation with either compound retarded passage of Ls174T cells through all phases of the cell cycle, with the effect being strongest for G1. In contrast to colon carcinoma cells, HUWE1 is not required for proliferation of embryonic stem (ES) cells and deletion of HUWE1 instead delays the decrease of N-MYC levels that occurs upon removal of leukemia inhibitory factor (LIF) from the medium (Zhao et al, [2008]). […] Furthermore, inhibition of HUWE1 in crypt cultures of normal intestinal epithelial cells had no effect on expression of MYC target genes (Fig4G).
HCT116, HEK293T, HeLa, HT29, ES, Phoenix, and U2OS cells were cultivated in DMEM (Sigma). Ls174T and SW480 cells were grown in RPMI 1640 (Sigma). All media were supplemented with 10% FBS (Biochrom AG) and 1% penicillin/streptomycin (Sigma). Medium for ES cells contained 15% FBS, 1% NEAA (Gibco), 6 μg/ml LIF, and 0.05 mM β-mercaptoethanol (Sigma). […] Quantification of crystal violet staining was performed by extracting dye with 10% acetic acid and measuring absorbance at 590 nm. IC50 values were calculated using the four parameter logistic equation model. […]
C. Quantification of the staining. […]

UBE3A = molecular target: T4, UBE3A (Homo sapiens, UniProt Q05086); experiment: in vitro HECT-domain auto-ubiquitination assay, UBE3A; format: biochemical
T4 construct: HECT-domains of multiple ligases auto-ubiquitinate in in vitro assays containing both UBA1 and UbcH5b
T4 sequence (Q05086 518-875 limits assumed): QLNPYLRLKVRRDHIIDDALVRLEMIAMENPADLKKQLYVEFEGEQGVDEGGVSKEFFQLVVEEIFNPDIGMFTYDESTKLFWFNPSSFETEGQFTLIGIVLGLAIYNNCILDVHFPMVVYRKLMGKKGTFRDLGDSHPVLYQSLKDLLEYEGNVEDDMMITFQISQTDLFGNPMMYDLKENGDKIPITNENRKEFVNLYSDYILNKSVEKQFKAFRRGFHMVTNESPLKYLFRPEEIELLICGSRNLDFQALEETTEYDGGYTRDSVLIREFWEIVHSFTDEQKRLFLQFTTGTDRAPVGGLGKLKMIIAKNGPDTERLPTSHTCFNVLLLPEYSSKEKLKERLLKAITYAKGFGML

Structure (SMILES) | IC50 (NEDD4) | IC50 (NEDD4L) | IC50 (ITCH) | IC50 (Ls174T cells; control Ls174T cells, read-out: IC50 growth inhibition, ctr cells) | IC50 (Ls174T cells; partially HUWE1-depleted Ls174T cells, read-out: IC50 growth inhibition, shHUWE1 cells) | IC50 (UBE3A)
Cc1c(C(=O)Nc2ccc(CN)cc2)ncnc1N1CCC(C#N)(c2ccccc2)CC1 [BI8622] | > 50 µM | > 50 µM | > 50 µM | 8.1 µM | 6.5 µM | > 50 µM
NCc1cccc(CNc2ncnc3c(N4CCN(Cc5ccccc5)CC4)ncnc23)c1 [BI8626] |  | > 50 µM | > 50 µM |  |  | > 50 µM
